Data from paper PMC10978636, “Hydroxy(phenyl)pyruvic acid reductase in Actaea racemosa L.: a putative enzyme in cimicifugic and fukinolic acid biosynthesis” (Planta, 2024).

Tested on: ArH(P)PR
Test: photometric NAD(P)H oxidation at […] nm, Michaelis-Menten fit
Format: biochemical, Actaea racemosa
Details: 0.1 M KPi pH 7.5
[1] = co-substrate concentration not in main text (Suppl. Table S3)

Compound	Km (1 mM NADPH) [mM]	other results
O=C(O)C(=O)Cc1ccccc1 [PP, phenylpyruvic acid]	5.32 ± 2.77	–
NC(=O)C1=CN([C@@H]2O[C@H](COP(=O)(O)OP(=O)(O)OC[C@H]3O[C@@H](n4cnc5c(N)ncnc54)[C@H](OP(=O)(O)O)[C@@H]3O)[C@@H](O)[C@H]2O)C=CC1 [NADPH]	–	Km [1]: 0.023 ± 0.004 mM
O=C(O)C(=O)Cc1ccc(O)cc1 [pHPP, 4-hydroxyphenylpyruvic acid]	1.13 ± 0.12	–
CC(=O)C(=O)O [P, pyruvic acid]	1.89 ± 0.51	–
O=C(O)C(=O)CO [β-HP, β-hydroxypyruvic acid]	–	Km (1 mM NADPH, error is SEM, substrate inhibition above 1 mM): 0.26 ± 0.12 mM
NC(=O)C1=CN([C@@H]2O[C@H](COP(=O)(O)OP(=O)(O)OC[C@H]3O[C@@H](n4cnc5c(N)ncnc54)[C@H](O)[C@@H]3O)[C@@H](O)[C@H]2O)C=CC1 [NADH]	–	Km [1]: 0.66 ± 0.09 mM
O=C(O)C(=O)Cc1ccc(O)c(O)c1 [DHPP, 3,4-dihydroxyphenylpyruvic acid]	24 ± 4.65	–
